Source: patent US11111270B2, “Inhibitor of apoptosis protein (IAP) antagonists” (Sanford Burnham Prebys Medical Discovery Institute, priority 2012, dated 2021)

How the values were obtained:
XIAP BIR1/2 = XIAP BIR1/2 (Homo sapiens, UniProt P98170); assay: XIAP BIR1/2 Ki; type: binding; conditions: Table B-1
XIAP BIR3 = XIAP BIR3 (Homo sapiens (Human), UniProt P98170); assay: XIAP BIR3 Ki; type: binding; conditions: Table B-1
PPC-1 cells [1] = assay: PPC-1 cell survival with TRAIL (Cell Titer Glo); type: cell-based
Experimental: (§1) 5000 PPC-1 cells were plated and grown overnight. Compounds were plated and 4 hrs later, TRAIL was added to half of the plate while RPMI was added to the other half of the plate as a control. Plates were return to the incubator for 24 hrs. Plates were removed from the incubator and placed on the bench for 30 min and then 25 uL of Cell Titer Glo were added per well. Plates were placed on a rocker and then read on a luminometer. 5000 MDA-MB-231 cells were plated per well. Compound was added and 4 hrs later, TRAIL was added at 5 ng/mL; RPMI was added for a minus TRAIL control. Plates were incubated an additional 24 hrs, removed to the bench for 30 min, and then 25 uL of cell titer glo was added per well. Plates were placed on a rocker and read on a luminometer. Data were fit using PRISM.

MDA-MB-231 cells = assay: MDA-MB-231 cell survival (Cell Titer Glo); type: cell-based
Experimental: as §1

ML-IAP = ML-IAP (Homo sapiens (Human), UniProt Q96CA5); assay: ML-IAP Ki; type: binding; conditions: Table B-1
Sequence of ML-IAP (Q96CA5 whole entry, species assumed): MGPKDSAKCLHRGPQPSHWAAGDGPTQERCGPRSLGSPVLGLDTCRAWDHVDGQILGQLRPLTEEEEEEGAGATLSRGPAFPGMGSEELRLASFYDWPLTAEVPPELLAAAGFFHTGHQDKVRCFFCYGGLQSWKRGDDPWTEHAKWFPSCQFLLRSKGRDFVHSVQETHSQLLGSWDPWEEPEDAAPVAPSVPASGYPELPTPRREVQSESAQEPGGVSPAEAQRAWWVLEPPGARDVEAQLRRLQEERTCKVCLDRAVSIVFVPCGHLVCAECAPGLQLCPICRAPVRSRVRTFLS

PPC-1 cells [2] = assay: PPC-1 cell survival with TNFα; type: cell-based
Experimental: as §1, with “Compounds were plated and 4 hrs later, TRAIL was added to half of the plate while RPMI was added to the other half of the plate as a control.” left out

Sequence of XIAP BIR1/2 (P98170 whole entry, looked up): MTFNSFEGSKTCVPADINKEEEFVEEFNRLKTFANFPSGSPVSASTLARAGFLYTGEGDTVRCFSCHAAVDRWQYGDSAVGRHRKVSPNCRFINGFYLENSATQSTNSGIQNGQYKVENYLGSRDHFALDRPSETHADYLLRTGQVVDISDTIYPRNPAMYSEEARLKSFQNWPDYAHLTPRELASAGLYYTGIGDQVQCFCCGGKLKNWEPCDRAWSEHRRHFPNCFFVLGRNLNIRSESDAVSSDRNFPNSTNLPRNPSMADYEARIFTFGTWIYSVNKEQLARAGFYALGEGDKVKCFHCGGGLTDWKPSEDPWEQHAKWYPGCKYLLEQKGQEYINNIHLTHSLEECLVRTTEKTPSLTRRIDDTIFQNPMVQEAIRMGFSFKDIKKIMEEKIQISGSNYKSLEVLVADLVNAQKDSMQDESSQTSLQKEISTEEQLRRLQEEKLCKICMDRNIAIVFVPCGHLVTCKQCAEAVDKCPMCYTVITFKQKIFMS
Sequence of XIAP BIR3 (P98170 241-356): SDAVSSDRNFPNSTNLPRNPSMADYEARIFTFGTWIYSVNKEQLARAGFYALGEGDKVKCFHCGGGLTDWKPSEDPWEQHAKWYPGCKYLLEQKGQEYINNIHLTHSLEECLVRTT

SMILES	Ki (XIAP BIR1/2)	Ki (XIAP BIR3)	PPC-1 (TRAIL) LD50 (PPC-1 cells [1])	MDA-MB-231 LD50 (MDA-MB-231 cells)	Ki (ML-IAP)	PPC-1 (TNFα) LD50 (PPC-1 cells [2])
CN[C@@H](C)C(=O)N[C@H]1CCO[C@H]2CC[C@@H](C(=O)Nc3cccc4ccccc34)N2C1=O [Product 25]	< 25 µM	< 25 µM				
CN[C@@H](C)C(=O)N[C@H]1CCO[C@H]2CC(C)(C)[C@@H](C(=O)N[C@@H]3CCCc4ccccc43)N2C1=O [Product 26]	< 25 µM	< 25 µM	A (A = ≤ 25 micromolar)	A (A = ≤ 25 micromolar)	< 25 µM	A (A = ≤ 25 micromolar)
CN[C@@H](C)C(=O)N[C@H]1CCO[C@H]2c3ccccc3C(C(=O)N[C@@H]3CCCc4ccccc43)N2C1=O (stereo partly shown) [Product 27]	> 50 µM	< 25 µM	A (A = ≤ 25 micromolar)		< 25 µM	A (A = ≤ 25 micromolar)
CN[C@@H](C)C(=O)N[C@H]1CCN[C@H]2CCC(C(=O)N[C@@H]3CCCc4ccccc43)N2C1=O (stereo partly shown) [Product 28]	> 50 µM					
CN[C@@H](C)C(=O)N[C@H]1CCN[C@H]2CCC(C(=O)N[C@@H]3CCCc4ccccc43)N2C1=O (stereo partly shown) [Product 29]		> 50 µM				
CN[C@@H](C)C(=O)N[C@H]1Cc2c([nH]c3ccccc23)[C@H]2CCC(C(=O)N[C@@H]3CCCc4ccccc43)N2C1=O (stereo partly shown) [Product 30]	> 50 µM	25 to 50 µM				
CN[C@@H](C)C(=O)N[C@H]1Cc2c([nH]c3ccccc23)[C@H]2CCC(C(=O)N[C@@H]3CCCc4ccccc43)N2C1=O (stereo partly shown) [Product 31]	< 25 µM	< 25 µM				
CN[C@@H](C)C(=O)N[C@H]1CCO[C@H]2CC[C@@H](C(=O)N[C@@H]3CCOc4ccccc43)N2C1=O [Product 32]	> 50 µM	< 25 µM	A (A = ≤ 25 micromolar)	A (A = ≤ 25 micromolar)	< 25 µM	A (A = ≤ 25 micromolar)
CN[C@@H](C)C(=O)N[C@H]1CCO[C@H]2CC[C@@H](C(=O)N[C@@H]3CCCc4ccccc43)N2C1=O [Product 33]	> 50 µM	< 25 µM	A (A = ≤ 25 micromolar)		< 25 µM	A (A = ≤ 25 micromolar)
CN[C@@H](C)C(=O)N[C@H]1CCS[C@H]2CC[C@@H](C(=O)N[C@@H]3CCCc4ccccc43)N2C1=O [Product 34]	> 50 µM	< 25 µM	A (A = ≤ 25 micromolar)		< 25 µM	A (A = ≤ 25 micromolar)
CN[C@@H](C)C(=O)N[C@H]1CCS[C@H]2CC(C)(C)C(C(=O)N[C@@H]3CCCc4ccccc43)N2C1=O (stereo partly shown) [Product 35]	< 25 µM	< 25 µM	A (A = ≤ 25 micromolar)		< 25 µM	A (A = ≤ 25 micromolar)
CN[C@@H](C)C(=O)N[C@H]1CCS[C@H]2CC[C@H](C(=O)N[C@@H]3CCCc4ccccc43)N2C1=O [Product 36]	> 50 µM	< 25 µM			< 25 µM	
CN[C@@H](C)C(=O)N[C@H]1CCS(=O)(=O)[C@H]2CC[C@@H](C(=O)N[C@@H]3CCCc4ccccc43)N2C1=O [Product 37]	> 50 µM	< 25 µM				
CN[C@@H](C)C(=O)N[C@H]1CCS(=O)(=O)[C@H]2CC[C@H](C(=O)N[C@@H]3CCCc4ccccc43)N2C1=O [Product 38]	> 50 µM					
CN[C@@H](C)C(=O)N[C@H]1CCO[C@H]2CC[C@H](C(=O)N[C@@H]3CCOc4ccccc43)N2C1=O [Product 39]	> 50 µM					
CN[C@@H](C)C(=O)N[C@H]1CCO[C@H]2CC(C)(C)C(C(=O)Nc3ccccc3SSc3ccccc3NC(=O)C3N4C(=O)[C@@H](NC(=O)[C@H](C)NC)CCO[C@H]4CC3(C)C)N2C1=O (stereo partly shown) [Product 40]	< 25 µM	< 25 µM				
CN[C@@H](C)C(=O)N[C@H]1CCS[C@H]2CCCC(C(=O)N[C@@H]3CCCc4ccccc43)N2C1=O (stereo partly shown) [Product 41]	< 25 µM	< 25 µM				
CN[C@@H](C)C(=O)N[C@H]1CCO[C@H]2CC3(CC=CC3)C(C(=O)N[C@@H]3CCCc4ccccc43)N2C1=O (stereo partly shown) [Product 42]	< 25 µM	< 25 µM			< 25 µM	
CN[C@@H](C)C(=O)N[C@H]1CCO[C@H]2CC3(CCCC3)C(C(=O)N[C@@H]3CCCc4ccccc43)N2C1=O (stereo partly shown) [Product 43]	< 25 µM	< 25 µM				
CN[C@@H](C)C(=O)N[C@H]1Cc2ccc(O)cc2[C@H]2CC(C)(C)C(C(=O)N[C@@H]3CCCc4ccccc43)N2C1=O (stereo partly shown) [Product 45]	< 25 µM	< 25 µM				
CN[C@@H](C)C(=O)N[C@H]1CC(=O)N[C@H]2CC(C)(C)C(C(=O)N[C@@H]3CCCc4ccccc43)N2C1=O (stereo partly shown) [Product 46]	> 50 µM	< 25 µM			< 25 µM	
